Assay results: the NIST ThermoML archive (doi:10.1021/je050367p)

Assays:
[1] = refractive index (Na D-line) (dimensionless); xn = mol fraction of the nth substance listed; conditions: 100.8 kPa, Liquid, Standard Abbe refractometry
[2] = xn = mol fraction of the nth substance listed; conditions: 100.8 kPa, Liquid; for viscosity: Capillary tube (Ostwald / Ubbelohde) method

CC(C)OC(C)C [diisopropyl ether] + CC(C)CC(C)(C)C
Conditions | mass density, 288.15 K [kg/m3] | mass density, 298.15 K [kg/m3] | mass density, 308.15 K [kg/m3] | refractive index, 288.15 K | refractive index, 298.15 K | refractive index, 308.15 K | viscosity, 288.15 K [mPa·s] | viscosity, 298.15 K [mPa·s] | viscosity, 308.15 K [mPa·s]
[1], x1 = 0.05 | – | – | – | 1.39293 | 1.38786 | 1.38277 | – | – | –
[1], x1 = 0.1 | – | – | – | 1.39183 | 1.38672 | 1.38159 | – | – | –
[1], x1 = 0.15 | – | – | – | 1.39072 | 1.38557 | 1.38042 | – | – | –
[1], x1 = 0.2 | – | – | – | 1.3896 | 1.38443 | 1.37924 | – | – | –
[1], x1 = 0.25 | – | – | – | 1.38846 | 1.38326 | 1.37803 | – | – | –
[1], x1 = 0.3 | – | – | – | 1.38733 | 1.38209 | 1.37682 | – | – | –
[1], x1 = 0.35 | – | – | – | 1.38619 | 1.38092 | 1.37561 | – | – | –
[1], x1 = 0.4 | – | – | – | 1.38504 | 1.37974 | 1.3744 | – | – | –
[1], x1 = 0.45 | – | – | – | 1.3839 | 1.37856 | 1.37317 | – | – | –
[1], x1 = 0.5 | – | – | – | 1.38274 | 1.37737 | 1.37195 | – | – | –
[1], x1 = 0.55 | – | – | – | 1.38158 | 1.37618 | 1.37072 | – | – | –
[1], x1 = 0.6 | – | – | – | 1.38042 | 1.37499 | 1.36949 | – | – | –
[1], x1 = 0.65 | – | – | – | 1.37926 | 1.3738 | 1.36826 | – | – | –
[1], x1 = 0.7 | – | – | – | 1.37809 | 1.37259 | 1.36703 | – | – | –
[1], x1 = 0.75 | – | – | – | 1.37691 | 1.37138 | 1.36578 | – | – | –
[1], x1 = 0.8 | – | – | – | 1.37573 | 1.37016 | 1.36452 | – | – | –
[1], x1 = 0.85 | – | – | – | 1.37456 | 1.36896 | 1.36327 | – | – | –
[1], x1 = 0.9 | – | – | – | 1.37337 | 1.36774 | 1.36201 | – | – | –
[1], x1 = 0.9499 | – | – | – | 1.37217 | 1.3665 | 1.36073 | – | – | –
[1], x1 = 1 | – | – | – | 1.37093 | 1.36524 | 1.35944 | – | – | –
[2], x1 = 0.05 | 697.2 | 688.86 | 680.44 | – | – | – | 0.523 | 0.468 | 0.422
[2], x1 = 0.1 | 698.46 | 690.03 | 681.52 | – | – | – | 0.511 | 0.456 | 0.412
[2], x1 = 0.15 | 699.73 | 691.23 | 682.62 | – | – | – | 0.498 | 0.445 | 0.402
[2], x1 = 0.2 | 701.06 | 692.45 | 683.75 | – | – | – | 0.486 | 0.435 | 0.393
[2], x1 = 0.25 | 702.44 | 693.75 | 684.95 | – | – | – | 0.474 | 0.425 | 0.384
[2], x1 = 0.3 | 703.86 | 695.08 | 686.17 | – | – | – | 0.463 | 0.415 | 0.375
[2], x1 = 0.35 | 705.33 | 696.43 | 687.42 | – | – | – | 0.452 | 0.406 | 0.367
[2], x1 = 0.4 | 706.84 | 697.84 | 688.72 | – | – | – | 0.442 | 0.397 | 0.359
[2], x1 = 0.45 | 708.37 | 699.26 | 690.03 | – | – | – | 0.432 | 0.388 | 0.351
[2], x1 = 0.5 | 709.97 | 700.76 | 691.42 | – | – | – | 0.423 | 0.38 | 0.343
[2], x1 = 0.55 | 711.64 | 702.32 | 692.86 | – | – | – | 0.414 | 0.372 | 0.336
[2], x1 = 0.6 | 713.36 | 703.94 | 694.35 | – | – | – | 0.405 | 0.364 | 0.329
[2], x1 = 0.65 | 715.15 | 705.61 | 695.92 | – | – | – | 0.397 | 0.357 | 0.323
[2], x1 = 0.7 | 716.97 | 707.32 | 697.5 | – | – | – | 0.389 | 0.35 | 0.316
[2], x1 = 0.75 | 718.85 | 709.08 | 699.14 | – | – | – | 0.382 | 0.343 | 0.31
[2], x1 = 0.8 | 720.8 | 710.9 | 700.83 | – | – | – | 0.375 | 0.337 | 0.305
[2], x1 = 0.85 | 722.8 | 712.78 | 702.59 | – | – | – | 0.368 | 0.33 | 0.299
[2], x1 = 0.9 | 724.9 | 714.75 | 704.42 | – | – | – | 0.361 | 0.325 | 0.294
[2], x1 = 0.9499 | 727 | 716.73 | 706.28 | – | – | – | 0.354 | 0.319 | 0.288
[2], x1 = 1 | 729.09 | 718.7 | 708.12 | – | – | – | 0.348 | 0.313 | 0.283

CC(C)CC(C)(C)C [2,2,4-trimethylpentane] + CCO
Conditions | mass density, 288.15 K [kg/m3] | mass density, 298.15 K [kg/m3] | mass density, 308.15 K [kg/m3] | refractive index, 288.15 K | refractive index, 298.15 K | refractive index, 308.15 K | viscosity, 288.15 K [mPa·s] | viscosity, 298.15 K [mPa·s] | viscosity, 308.15 K [mPa·s]
[1], x2 = 0 | – | – | – | 1.39404 | 1.389 | 1.38395 | – | – | –
[1], x2 = 0.0502 | – | – | – | 1.39319 | 1.3881 | 1.38297 | – | – | –
[1], x2 = 0.1 | – | – | – | 1.39241 | 1.3873 | 1.38217 | – | – | –
[1], x2 = 0.15 | – | – | – | 1.39162 | 1.38651 | 1.38138 | – | – | –
[1], x2 = 0.2 | – | – | – | 1.39081 | 1.38569 | 1.38056 | – | – | –
[1], x2 = 0.25 | – | – | – | 1.38996 | 1.38485 | 1.37972 | – | – | –
[1], x2 = 0.3 | – | – | – | 1.38907 | 1.38397 | 1.37885 | – | – | –
[1], x2 = 0.35 | – | – | – | 1.38811 | 1.38304 | 1.37794 | – | – | –
[1], x2 = 0.4 | – | – | – | 1.38709 | 1.38204 | 1.37696 | – | – | –
[1], x2 = 0.45 | – | – | – | 1.38597 | 1.38099 | 1.37593 | – | – | –
[1], x2 = 0.5 | – | – | – | 1.38479 | 1.37984 | 1.3748 | – | – | –
[1], x2 = 0.55 | – | – | – | 1.3835 | 1.37858 | 1.37358 | – | – | –
[1], x2 = 0.6 | – | – | – | 1.38209 | 1.37722 | 1.37227 | – | – | –
[1], x2 = 0.65 | – | – | – | 1.38055 | 1.37573 | 1.37083 | – | – | –
[1], x2 = 0.7 | – | – | – | 1.37884 | 1.37408 | 1.36922 | – | – | –
[1], x2 = 0.75 | – | – | – | 1.37694 | 1.37225 | 1.36745 | – | – | –
[1], x2 = 0.8 | – | – | – | 1.37484 | 1.3702 | 1.3655 | – | – | –
[1], x2 = 0.85 | – | – | – | 1.37249 | 1.36792 | 1.3633 | – | – | –
[1], x2 = 0.9 | – | – | – | 1.36984 | 1.36536 | 1.36085 | – | – | –
[1], x2 = 0.95 | – | – | – | 1.36684 | 1.36248 | 1.35812 | – | – | –
[2], x2 = 0 | 695.95 | 687.74 | 679.41 | – | – | – | 0.537 | 0.48 | 0.432
[2], x2 = 0.0502 | 697.2 | 688.84 | 680.36 | – | – | – | 0.532 | 0.473 | 0.424
[2], x2 = 0.1 | 698.76 | 690.33 | 681.76 | – | – | – | 0.535 | 0.476 | 0.426
[2], x2 = 0.15 | 700.55 | 692.11 | 683.52 | – | – | – | 0.542 | 0.48 | 0.429
[2], x2 = 0.2 | 702.53 | 694.07 | 685.43 | – | – | – | 0.551 | 0.487 | 0.434
[2], x2 = 0.25 | 704.71 | 696.21 | 687.56 | – | – | – | 0.564 | 0.497 | 0.441
[2], x2 = 0.3 | 707.1 | 698.57 | 689.88 | – | – | – | 0.58 | 0.51 | 0.451
[2], x2 = 0.35 | 709.71 | 701.17 | 692.45 | – | – | – | 0.601 | 0.526 | 0.462
[2], x2 = 0.4 | 712.6 | 704.03 | 695.3 | – | – | – | 0.625 | 0.543 | 0.476
[2], x2 = 0.45 | 715.8 | 707.2 | 698.44 | – | – | – | 0.652 | 0.565 | 0.492
[2], x2 = 0.5 | 719.31 | 710.68 | 701.91 | – | – | – | 0.682 | 0.588 | 0.51
[2], x2 = 0.55 | 723.22 | 714.59 | 705.8 | – | – | – | 0.718 | 0.615 | 0.531
[2], x2 = 0.6 | 727.55 | 718.9 | 710.11 | – | – | – | 0.755 | 0.645 | 0.554
[2], x2 = 0.65 | 732.37 | 723.73 | 714.93 | – | – | – | 0.797 | 0.677 | 0.58
[2], x2 = 0.7 | 737.81 | 729.14 | 720.34 | – | – | – | 0.843 | 0.715 | 0.609
[2], x2 = 0.75 | 743.99 | 735.34 | 726.54 | – | – | – | 0.894 | 0.755 | 0.642
[2], x2 = 0.8 | 751.11 | 742.37 | 733.58 | – | – | – | 0.952 | 0.801 | 0.678
[2], x2 = 0.85 | 759.27 | 750.54 | 741.75 | – | – | – | 1.018 | 0.854 | 0.72
[2], x2 = 0.9 | 768.81 | 760.17 | 751.44 | – | – | – | 1.095 | 0.915 | 0.769
[2], x2 = 0.95 | 780.26 | 771.59 | 762.84 | – | – | – | 1.19 | 0.991 | 0.828
